Experimental data taken from PMC11472313, “Development of Fragment-Based Inhibitors of the Bacterial Deacetylase LpxC with Low Nanomolar Activity” (Journal of Medicinal Chemistry, 2024).
In brackets after ≈: the same amount, converted by molar mass. Several values for one entry are separate records, joined by “and”; a condition that tells them apart may be missing. Equal values may be shown once.

What was measured:
E. coli LpxC C63A = target: T1, E. coli LpxC C63A (Escherichia coli, UniProt P0A725, C63A); test: fluorescence-based E. coli LpxC C63A enzyme inhibition assay; type: biochemical; conditions: for fold higher LpxC inhibitory activity than its enantiomer (eudysmic ratio): E. coli LpxC C63A, (S) versus (R); for Ki: Ki E. coli LpxC C63A, from IC50 via Cheng–Prusoff
T1 construct: made in house; host or cells: E. coli BL21(DE3)
Procedure, shortened: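 Purified E. coli LpxC C63A (15 nM) was incubated with 25 µM UDP-3-O-[(R)-3-hydroxymyristoyl]-GlcNAc in MES pH 6.0 buffer (2% DMSO) for 30 min at 37 °C. Compounds ranged from 20 nM to 20 µM. Product was derivatized with o-phthaldialdehyde/2-mercaptoethanol and read by fluorescence (ex 340/em 460), with IC50 converted to Ki via Cheng–Prusoff.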

E. coli BL21(DE3) [1] = test: MIC, broth microdilution; type: cell-based; conditions: 20 h, 37 °C, LB; for MIC: Escherichia coli
Procedure, shortened: (§1)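 LB broth microdilution, inoculum 5 × 10^5 cfu mL^–1, 5% DMSO, 2-fold compound series 64–0.016 μg mL^–1 final, incubated 20 h at 37 °C. MIC was the lowest concentration preventing visible growth, from at least three runs on separate days.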

E. coli D22 [2] = test: MIC, broth microdilution; type: cell-based; conditions: Escherichia coli, 20 h, 37 °C, LB
Procedure, shortened: as §1

E. coli BL21(DE3) [3] = test: disc diffusion assay; type: cell-based; conditions: 0.15 μmol per 6 mm disc
E. coli D22 [4] = test: disc diffusion assay; type: cell-based; conditions: 0.15 μmol per 6 mm disc
LasB = target: T2, LasB (Pseudomonas aeruginosa, UniProt Q02RJ6); test: FRET-based LasB in vitro inhibition assay; type: biochemical, P. aeruginosa PA14; conditions: for inhibition at 20 µM: read-out: LasB Inhibition at 20 μM
T2 construct: The elastase LasB of P. aeruginosa is a secreted metalloprotease; endogenous in cells; host or cells: P. aeruginosa PA14 culture supernatant
Protocol: Purification of LasB from P. aeruginosa PA14 supernatant and the subsequent performance of the FRET-based in vitro inhibition assay was performed as described previously.[66] The TACE (ADAM-17) inhibitor screening kit was purchased from Sigma-Aldrich (Saint Louis, MO). MMPs 1–3 along with the SensoLyte 520 Generic MMP Activity Kit Fluorimetric were purchased from AnaSpec (Fremont, CA, USA). The assays were performed according to the guidelines of the respective manufacturer. Fluorescence signals were measured using a CLARIOstar plate reader (BMG Labtech, Ortenberg, Germany).

[5] = test system: K. pneumoniae ATCC 700603; test: disc diffusion assay; type: cell-based, Klebsiella pneumoniae; conditions: 0.15 μmol per 6 mm disc
Protocol: (§2) In the performed disc diffusion assays, indole derivatives (S)-13h, (S)-13i, and (S)-13j caused promising halos of growth inhibition.
(§3) The disc diffusion assays against E. coli TOP10 (Thermo Fisher, Waltham, USA), E. coli ATCC 35218, K. pneumoniae ATCC 700603, and P. aeruginosa ATCC 27853 were performed as follows: the bacteria were grown overnight on a Columbia blood agar plate (Oxoid, Basingstoke, UK), and one colony was suspended in sterile saline to yield a suspension of 0.5 McFarland standard. Using a sterile swab, the suspension was spread evenly onto Mueller–Hinton agar (Oxoid, Basingstoke, UK). 0.15 μmol of each compound (dissolved in 10 μL DMSO) was applied onto circular 6 mm diameter filter paper disks, which were then placed on the agar. After incubating the agar plates for 20 h at 37 °C, the diameter of the zone of growth inhibition was measured for each compound.

P. aeruginosa ATCC 27853 = test: disc diffusion assay; type: cell-based; conditions: 0.15 μmol per 6 mm disc
Protocol: as §2, §3

E. coli ATCC 35218 = test: disc diffusion assay; type: cell-based; conditions: 0.15 μmol per 6 mm disc
Protocol: as §2, §3

E. coli TOP10 = test: disc diffusion assay; type: cell-based; conditions: 0.15 μmol per 6 mm disc
Protocol: as §2, §3

T1 sequence (P0A725 whole entry C63A): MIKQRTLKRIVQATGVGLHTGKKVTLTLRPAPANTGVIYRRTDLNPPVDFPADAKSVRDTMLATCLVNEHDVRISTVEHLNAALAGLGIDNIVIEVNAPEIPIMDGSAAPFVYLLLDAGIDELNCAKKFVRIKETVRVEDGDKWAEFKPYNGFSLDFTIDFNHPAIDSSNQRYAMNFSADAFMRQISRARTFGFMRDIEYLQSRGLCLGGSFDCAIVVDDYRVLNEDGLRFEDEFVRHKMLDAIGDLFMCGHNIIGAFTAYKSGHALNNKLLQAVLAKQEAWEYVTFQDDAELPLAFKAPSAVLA
T2 sequence (Q02RJ6 198-498): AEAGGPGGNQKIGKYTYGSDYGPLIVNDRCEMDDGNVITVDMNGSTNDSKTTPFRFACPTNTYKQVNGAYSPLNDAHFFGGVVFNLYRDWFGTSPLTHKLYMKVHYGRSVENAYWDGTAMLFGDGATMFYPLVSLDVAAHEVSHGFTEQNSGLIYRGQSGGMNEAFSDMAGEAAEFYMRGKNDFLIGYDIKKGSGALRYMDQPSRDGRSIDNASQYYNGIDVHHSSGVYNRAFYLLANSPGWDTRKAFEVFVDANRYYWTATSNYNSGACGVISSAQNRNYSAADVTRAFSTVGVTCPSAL

Compound | fold higher LpxC inhibitory activity than its enantiomer (eudysmic ratio) (E. coli LpxC C63A) [fold] | Ki (E. coli LpxC C63A) | MIC (E. coli BL21(DE3) [1]) [µg/mL] | MIC (E. coli D22 [2]) [µg/mL] | Inhibition zone E. coli BL21(DE3) (E. coli BL21(DE3) [3]) [mm] | Inhibition zone E. coli D22 (E. coli D22 [4]) [mm] | IC50 (LasB) [nM] | inhibition at 20 µM (LasB) [%] | Inhibition zone K. pneumoniae ATCC 700603 [5] [mm] | Inhibition zone P. aeruginosa ATCC 27853 (P. aeruginosa ATCC 27853) [mm] | Inhibition zone E. coli ATCC 35218 (E. coli ATCC 35218) [mm] | Inhibition zone E. coli TOP 10 (E. coli TOP10) [mm] | LasB Inhibition at 20 μM (LasB) | MIC E. coli BL21(DE3) (E. coli BL21(DE3) [1]) [µg/mL]
O=C(NO)[C@H](COCc1ccccc1)OCc1ccc(C#Cc2ccc(CN3CCOCC3)cc2)cc1 [(S)-11a, (S)-3-(Benzyloxy)-N-hydroxy-2-[(4-{[4-(morpholinomethyl)phenyl]ethynyl}benzyl)oxy]propanamide] | 6 | 606 ± 356 nM | > 32 | 0.5 (≈ 0.999 µM) | ≤6 | 15.4 ± 2.4 | 14300 ± 900 | 62.3 ± 3.2 |  |  |  |  |  | 
O=C(NO)[C@H](CNCc1ccccc1)OCc1ccc(C#Cc2ccc(CN3CCOCC3)cc2)cc1 [(S)-12a, (S)-3-(Benzylamino)-N-hydroxy-2-[(4-{[4-(morpholinomethyl)phenyl]ethynyl}benzyl)oxy]propanamide] |  | 4590 ± 1260 nM | 16 (≈ 32 µM) | 0.5 (≈ 1 µM) | 13.0 ± 1.0 | 24.3 ± 2.1 | 21900 ± 1200 | 57 ± 2 |  |  |  |  |  | 
O=C(NC[C@H](OCc1ccc(C#Cc2ccc(CN3CCOCC3)cc2)cc1)C(=O)NO)c1ccccc1 [(S)-13a, (S)-N-{3-(Hydroxyamino)-2-[(4-{[4-(morpholinomethyl)phenyl]ethynyl}benzyl)oxy]-3-oxopropyl}benzamide] | 17 | 150 nM and 149 nM | 8 (≈ 15.6 µM) | 0.13 (≈ 0.253 µM) | 15.7 ± 1.6 | 26.3 ± 1.5 |  | 20.1 ± 3.9 | 7.0 ± 1.0 | 7.0 ± 1.0 | 19.3 ± 0.6 | 23.3 ± 0.6 |  | 
O=C(NC[C@H](OCc1ccc(C#Cc2ccc(CN3CCOCC3)cc2)cc1)C(=O)NO)c1cccc(-c2ccccc2)c1 [(S)-13c] |  | 42 nM and 41.5 nM | > 16 | 0.13 (≈ 0.22 µM) | ≤6 | 19.0 ± 1.5 |  | < 10 | <6 | 6.3 ± 0.6 | 7.7 ± 1.5 | 8.0 ± 0 | little to no inhibitory activity | 
O=C(NC[C@H](OCc1ccc(C#Cc2ccc(CN3CCOCC3)cc2)cc1)C(=O)NO)c1ccc(Oc2ccccc2)cc1 [(S)-13d] |  | 323 ± 126 nM | > 16 | 0.25 (≈ 0.413 µM) | ≤6 | 9.3 ± 1.6 |  | < 10 | <6 | 6.3 ± 0.6 | 7.0 ± 1.0 | <6 | little to no inhibitory activity | 
O=C(NC[C@H](OCc1ccc(C#Cc2ccc(CN3CCOCC3)cc2)cc1)C(=O)NO)c1ccc2ccccc2n1 [(S)-13e] |  | 377 ± 83 nM | > 16 | 0.25 (≈ 0.443 µM) | ≤6 | 16.0 ± 2.5 |  | 11.6 ± 1.9 | <6 | 6.3 ± 0.6 | 7.7 ± 1.5 | 8.0 ± 0 | little to no inhibitory activity | 
O=C(NC[C@H](OCc1ccc(C#Cc2ccc(CN3CCOCC3)cc2)cc1)C(=O)NO)c1cnc2ccccc2c1 [(S)-13f] |  | 117 ± 21 nM | > 16 | 0.25 (≈ 0.443 µM) | 11.5 ± 2.1 | 29.0 ± 1.0 |  | < 10 | <6 | <6 | 15.0 ± 0 | 18.0 ± 6.0 | little to no inhibitory activity | 
O=C(NC[C@H](OCc1ccc(C#Cc2ccc(CN3CCOCC3)cc2)cc1)C(=O)NO)c1cc2ccccc2[nH]1 [(S)-13g] |  | 87 ± 58.5 nM | 4 to 8 (≈ 7.24 to 14.5 µM) | 0.063 (≈ 0.114 µM) | 10.0 ± 1.0 | 23.0 ± 1.0 |  | < 10 | <6 | <6 | 10.7 ± 0.6 | 16.0 ± 6.1 | little to no inhibitory activity | 8.0 (≈ 14.5 µM)
O=C(NC[C@H](OCc1ccc(C#Cc2ccc(CN3CCOCC3)cc2)cc1)C(=O)NO)c1c[nH]c2ccccc12 [(S)-13h] |  | 10.7 ± 1.2 nM | 1 to 4 (≈ 1.81 to 7.24 µM) | 0.031 (≈ 0.0561 µM) | 19.7 ± 1.6 | 29.3 ± 1.6 |  | 25.2 ± 5.6 | 6.7 ± 1.2 | 7.0 ± 1.0 | 19.0 ± 1.0 | 18.7 ± 5.8 | little to no inhibitory activity | 1.0 (≈ 1.81 µM)
O=C(NC[C@H](OCc1ccc(C#Cc2ccc(CN3CCOCC3)cc2)cc1)C(=O)NO)c1cccc2[nH]ccc12 [(S)-13i] |  | 15.3 ± 3.6 nM |  | 0.031 (≈ 0.0561 µM) | 20.4 ± 1.6 | >30 |  | 27.6 ± 2.9 | 7.3 ± 1.2 | 6.3 ± 0.6 | 17.0 ± 3.5 | 23.0 ± 1.0 | little to no inhibitory activity | 
O=C(NO)[C@H](CN(Cc1ccccc1)Cc1ccccc1)OCc1ccc(C#Cc2ccc(CN3CCOCC3)cc2)cc1 [(S)-37, (S)-3-(Dibenzylamino)-N-hydroxy-2-[(4-{[4-(morpholinomethyl)phenyl]ethynyl}benzyl)oxy]propanamide] |  | > 2540 nM | > 16 | 16 (≈ 27.1 µM) | ≤6 | 7.7 ± 1.2 |  | < 10 |  |  |  |  | no inhibitory activity | 
